As a reminder, the Papp A→B is the apparent permeability from the apical to the basolateral side of a cell layer. A higher Papp A→B goes with ready permeation. For orientation: Papp B→A means how fast a substance crosses the layer from the basolateral side.

The data set deals with P-gp (MDR1), human. Briefly: in vitro. The note with it: dog, MDCK-MDR1. The format is in vitro ADME. How it is done: MDR I-MDCK Permeability: Experimental Procedure
MDR1-MDCK cells obtained from the NIH (Rockville, Md., USA) are used between passage numbers 6-30. Cells are seeded onto Millipore Multiscreen Transwell plates at 3.4×10^5 cells/cm2. The cells are cultured in DMEM and media is changed on day 3. On day 4 the permeability study is performed. Cell culture and assay incubations are carried out at 37° C. in an atmosphere of 5% CO2 with a relative humidity of 95%. On the day of the assay, the monolayers are prepared by rinsing both basolateral and apical surfaces twice with Hanks Balanced Salt Solution (HBSS) at the desired pH warmed to 37° C. Cells are then incubated with HBSS at the desired pH in both apical and basolateral compartments for 40 min to stabilise physiological parameters.
The dosing solutions are prepared by diluting test compound with assay buffer to give a final test compound concentration of 10 μM (final DMSO concentration of 1% v/v). […]
Test compound permeability is assessed in duplicate. […]
Test and control compounds are quantified by LC-MS/MS cassette analysis using an 8-point calibration with appropriate dilution of the samples. The starting concentration (C0) is determined from the dosing solution and the experimental recovery calculated from C0 and both apical and basolateral compartment concentrations. […]

In the case of `NC1CCN(c2ncc(CN3C(=O)C4(CC4)c4ccc(F)cc43)c(N[C@H]3CC[C@H](O)CC3)n2)C1` (some centres unmarked) [Compound 2, 1′-((2-(3-Aminopyrrolidin-1-yl)-4-(((1r,4r)-4-hydroxycyclohexyl)amino)pyrimidin-5-yl)methyl)-6′-fluorospiro[cyclopropane-1,3′-indolin]-2′-one], the apical-to-basolateral permeability (Papp A→B) at 60 min, 10 μM was found to be 0.32 ×10⁻⁶ cm/s and the basolateral-to-apical permeability (Papp B→A) at 60 min, 10 μM stood at 7.99 ×10⁻⁶ cm/s.

(Values after US10603319B2, “Pyrimidine derivatives and their use in treating or preventing a respiratory syncytial virus infection” (REVIRAL LIMITED, priority 2016, dated 2020).)
